Experimental data: patent publication US20240317721A1, “PYRAZOLYL DERIVATIVES AS INHIBITORS OF THE KRAS MUTANT PROTEIN” (NOVARTIS AG, priority 2021, published 2024)

The molecules below were run against KRasG12C (M1-K169, biotinylated on the N-terminus) (Homo sapiens (Human), UniProt P01116, G12C) (assay: Covalent competition assay: scintillation proximity assay (SPA) quantifying covalent modification of KRASG12C). Details: competition with radiolabeled covalent probe (Compound B/Compound A), 2 hours incubation, 10 nM KRasG12C.
Assay type: binding
In short: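 Test compounds compete with a radiolabeled covalent probe for modification of N-terminally biotinylated KRasG12C(M1-K169):GDP, final 10 nM protein, 25 nM radio-ligand, 475 nM unlabelled ligand, 2 h with agitation in 20 mM Tris-HCl pH 7.5, 150 mM NaCl, 0.1 mM MgCl2, 0.01% Tween-20.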
C=CC(=O)N1CC2(CC(n3nc(N4CCC(C(=O)N5CCN(C)CC5)CC4(C)C)c(-c4c(Cl)c(Cl)cc5[nH]ncc45)c3C)C2)C1 (single isomer, unassigned) [Example 211a, 1-(6-(4-(5,6-dichloro-1H-indazol-4-yl)-3-(2,2-dimethyl-4-(4-methylpiperazine-1-carbonyl)piperidin-1-yl)-5-methyl-1H-pyrazol-1-yl)-2-azaspiro[3.3]heptan-2-yl)prop-2-en-1-one] was tested, and the IC50 was 1600 nM.
Molecule C=CC(=O)N1CC2(CC(n3nc(N4CCC(C(=O)N5CCN(C)CC5)CC4(C)C)c(-c4c(Cl)c(Cl)cc5[nH]ncc45)c3C)C2)C1 (single isomer, unassigned) [Example 211b, 1-(6-(4-(5,6-dichloro-1H-indazol-4-yl)-3-(2,2-dimethyl-4-(4-methylpiperazine-1-carbonyl)piperidin-1-yl)-5-methyl-1H-pyrazol-1-yl)-2-azaspiro[3.3]heptan-2-yl)prop-2-en-1-one] has an IC50 of 8 nM.
C=CC(=O)N1CC2(CC(n3nc(N4CCC(N5C[C@H]6C[C@@H]5CN6S(C)(=O)=O)CC4(C)C)c(-c4c(Cl)c(Cl)cc5[nH]ncc45)c3C)C2)C1 (single isomer, unassigned) [Example 212a] gave an IC50 of 358 nM.
Molecule C=CC(=O)N1CC2(CC(n3nc(N4CCC(N5C[C@H]6C[C@@H]5CN6S(C)(=O)=O)CC4(C)C)c(-c4c(Cl)c(Cl)cc5[nH]ncc45)c3C)C2)C1 (single isomer, unassigned) [Example 212b] has an IC50 of 12 nM.
C=CC(=O)N1CC2(CC(n3nc(N4CC[C@@H](CN5CCOCC5)CC4(C)C)c(-c4c(Cl)c(Cl)cc5[nH]ncc45)c3C)C2)C1 (single isomer, unassigned) [Example 213a] gave an IC50 of 3500 nM.
C=CC(=O)N1CC2(CC(n3nc(N4CC[C@@H](CN5CCOCC5)CC4(C)C)c(-c4c(Cl)c(Cl)cc5[nH]ncc45)c3C)C2)C1 (single isomer, unassigned) [Example 213b] gave an IC50 of 12 nM.
C=CC(=O)N1CC2(CC(n3nc(N4CC[C@H](CN5CCOCC5)CC4(C)C)c(-c4c(Cl)c(Cl)cc5[nH]ncc45)c3C)C2)C1 (single isomer, unassigned) [Example 214a] was tested, and the IC50 was 290 nM.
In the case of C=CC(=O)N1CC2(CC(n3nc(N4CC[C@H](CN5CCOCC5)CC4(C)C)c(-c4c(Cl)c(Cl)cc5[nH]ncc45)c3C)C2)C1 (single isomer, unassigned) [Example 214b], the IC50 is reported as 679 nM.
C=CC(=O)N1CC2(CC(n3nc(N4CCC(CN5C[C@@H]6C[C@H]5CO6)CC4(C)C)c(-c4c(Cl)c(Cl)cc5[nH]ncc45)c3C)C2)C1 (single isomer, unassigned) [Example 217a] gave an IC50 of 928 nM.
Molecule C=CC(=O)N1CC2(CC(n3nc(N4CCC(CN5C[C@@H]6C[C@H]5CO6)CC4(C)C)c(-c4c(Cl)c(Cl)cc5[nH]ncc45)c3C)C2)C1 (single isomer, unassigned) [Example 217b] has an IC50 of 8 nM.
C=CC(=O)N1CC2(CC(n3nc(N4CCC(CN5CCOCC5)C4(C)C)c(-c4c(Cl)c(Cl)cc5[nH]ncc45)c3C)C2)C1 (single isomer, unassigned) [Example 218a, 1-(6-(4-(5,6-dichloro-1H-indazol-4-yl)-3-(2,2-dimethyl-3-(morpholinomethyl)pyrrolidin-1-yl)-5-methyl-1H-pyrazol-1-yl)-2-azaspiro[3.3]heptan-2-yl)prop-2-en-1-one] gave an IC50 of 81 nM.
In the case of C=CC(=O)N1CC2(CC(n3nc(N4CCC(CN5CCOCC5)C4(C)C)c(-c4c(Cl)c(Cl)cc5[nH]ncc45)c3C)C2)C1 (single isomer, unassigned) [Example 218b, 1-(6-(4-(5,6-dichloro-1H-indazol-4-yl)-3-(2,2-dimethyl-3-(morpholinomethyl)pyrrolidin-1-yl)-5-methyl-1H-pyrazol-1-yl)-2-azaspiro[3.3]heptan-2-yl)prop-2-en-1-one], the IC50 is reported as greater than 5000 nM.
